Assay results reported in US4199600A, “Preservation of aqueous systems with α-halo-β-aminocrotonic acid esters” (Givaudan Corporation, priority 1978, dated 1980).
≈ marks a conversion by molar mass, not a printed value. Read-outs that look alike come from different tables or passages of the source.

Columns and labels:
Assay type in all cases: cell-based
E. aerogenes = test: Slimicide test for pulp and paper mill water systems; conditions: Klebsiella aerogenes, 28° C.
Description: (§1) Various quantities of a 6% solution of this compound in dimethylformamide were incorporated into 24 ml of a test substrate composed as follows:
(§2) 8.4 g--Whatman No. 2 powdered cellulose
(§3) 1.0 g--Nutrient Broth, Difco
(§4) 10.0 ml--Mersize Rm 70R (Monsanto)
(§5) The samples were inoculated with four different organisms and incubated at 28° C. At weekly intervals the samples were examined for the presence of microbial growth and reinoculated during a total incubation period of four weeks.

A. niger = test: as above; conditions: 28° C.
Description: as §1, §2, §3, §4, §5

P. aeruginosa = test: as above; conditions: 28° C.
Description: as §1, §2, §3, §4, §5

P. Piscarium = test: as above; conditions: 28° C.
Description: as §1, §2, §3, §4, §5

Aspergillis oryzae = test: General antimicrobial activity, agar dilution MIC (fungi); conditions: 168 h, mildew glucose agar, 28° C., seven days, growth only at the lower concentration of the range, read-out: Minimum Inhibitory Concentration
Description: A 6% soltuion of α-halo-β-aminocrotonic acid ester in dimethyl formamide was prepared. The 6% solution was then […] serially diluted in test tubes to give the desired concentrations when mixed with agar and poured into sterile Petri dishes. For instance, 0.8 ml of a 6% stock solution plus 24.2 ml of agar gives a test concentration of 1920 mcg/ml, the highest level tested. Tryptone glucose extract agar is used for the bacterial testing; mildew glucose agar for the fungal testing. The bacterial plates were spot inoculated with 24-hour nutrient broth cultures and incubated at 37° C. for 48 hours. The fungal plates were spot inoculated with spore suspensions and incubated at 28° C. for seven days. At the end of the incubation periods, all plates were examined for growth. The minimum inhibitory concentration (MIC) for each organism is expressed in Table I. In the ranges presented, growth is observed only at the lower concentration.

Pseudomonas aeruginosa [1] = test: Textile lubricant preservative test; conditions: commercial textile lubricant, 28° C.
Description: (§6) In running these tests, two-fold serial dilutions of 6% solutions of the compound in dimethylformamide was added to 3.3% cutting oil elumsions. The emulsions were prepared by diluting with water a commercially available cutting oil concentrate. The emulsions were inoculated with a culture of Pseudomonas aeruginosa and incubated at 28° C. on a rotary shaker. At weekly intervals, the emulsions were examined for bacteria by conventional streakplate methods. The emulsions were then reinoculated with Pseudomonas aeruginosa and reincubated.
The test run was the same as for the cutting oil above except that a commercial textile lubricant was substituted.

Aspergillus niger = test: Cosmetic preservative test in lotion; conditions: 28° C.
Description: (§7) The α-halo-β-aminocrotonic acid esters are effective cosmetic preservatives. Two-fold serial dilutions of 6% solutions of the α-halo-β-aminocrotonic acid esters in dimethylformamide were added to a cosmetic lotion of the following formulation: The lotions were inoculated with both Pseudomonas aeruginosa and Aspergillus niger and incubated at 28° C. At weekly intervals, the lotions were examined for microorganisms by conventional streak-plate methods or by macroscopic observation. The lotions were then reinoculated with the test organisms and reincubated.

Pseudomonas aeruginosa [2] = test: Cosmetic preservative test in lotion; conditions: 28° C.
Description: as §7

Pseudomonas aeruginosa [3] = test: Cutting oil preservative test in 3.3% cutting oil emulsion; conditions: for MIC: Pseudomonas aeruginosa, 3.3% cutting oil emulsion, 28° C., rotary shaker, read-out: Minimum Inhibitory Concentration Range
Description: as §6

[4] = (week 4), reinoculated weekly, read-out: Effectiveness as a Slimicide
[5] = week 1, read-out: Effectiveness as a Slimicide
[6] = week 2, reinoculated weekly, read-out: Effectiveness as a Slimicide
[7] = week 3, reinoculated weekly, read-out: Effectiveness as a Slimicide
[8] = week 1, read-out: Minimum Inhibitory Concentration Range
[9] = week 3, reinoculated weekly, read-out: Minimum Inhibitory Concentration Range
[10] = week 4, reinoculated weekly, read-out: Minimum Inhibitory Concentration Range

MIC (Aspergillis oryzae): 15 µg/mL (≈ 100 µM) | MIC (Pseudomonas aeruginosa [1]; [8]): 62.5 to 125 µg/mL (≈ 418 to 836 µM) | MIC (Pseudomonas aeruginosa [1]; week 2, reinoculated weekly, read-out: Minimum Inhibitory Concentration Range): 62.5 to 125 µg/mL (≈ 418 to 836 µM) | MIC (Pseudomonas aeruginosa [1]; [9]): 62.5 to 125 µg/mL (≈ 418 to 836 µM) | MIC (Pseudomonas aeruginosa [1]; [10]): 125 to 250 µg/mL (≈ 836 to 1670 µM) | MIC (Aspergillus niger; [8]): < 125 µg/mL | MIC (Aspergillus niger; [9]): 1000 to 2000 µg/mL (≈ 6690 to 13400 µM) | MIC (Aspergillus niger; [10]): > 2000 µg/mL | MIC (Pseudomonas aeruginosa [2]; Pseudomonas aeruginosa, week 1, read-out: Minimum Inhibitory Concentration Range): < 125 µg/mL | MIC (Pseudomonas aeruginosa [3]; week 1): < 31.3 µg/mL | MIC (Pseudomonas aeruginosa [3]; week 2, reinoculated weekly): 62.5 to 125 µg/mL (≈ 418 to 836 µM) | MIC (Pseudomonas aeruginosa [3]; week 3, reinoculated weekly): 125 to 250 µg/mL (≈ 836 to 1670 µM) | MIC (Pseudomonas aeruginosa [3]; week 4, reinoculated weekly): 250 to 500 µg/mL (≈ 1670 to 3340 µM)
SMILES: COC(=O)/C(Cl)=C(/C)N [α-Chloro-β-aminocrotonic acid methyl ester]
MIC (E. aerogenes; [4]): 250 to 500 µg/mL (≈ 1670 to 3340 µM) | MIC (E. aerogenes; [5]): < 62.5 µg/mL | MIC (E. aerogenes; [6]): 125 to 250 µg/mL (≈ 836 to 1670 µM) | MIC (E. aerogenes; [7]): 250 to 500 µg/mL (≈ 1670 to 3340 µM) | Effectiveness as a Slimicide (A. niger; (week 4), reinoculated weekly): < 62.5 µg/mL | Effectiveness as a Slimicide (A. niger; week 2, reinoculated weekly): < 62.5 µg/mL | Effectiveness as a Slimicide (A. niger; week 3, reinoculated weekly): < 62.5 µg/mL | MIC (A. niger; Aspergillus niger, week 1, read-out: Effectiveness as a Slimicide): < 62.5 µg/mL | Effectiveness as a Slimicide (P. aeruginosa; (week 4), reinoculated weekly): < 62.5 µg/mL | Effectiveness as a Slimicide (P. aeruginosa; week 2, reinoculated weekly): < 62.5 µg/mL | Effectiveness as a Slimicide (P. aeruginosa; week 3, reinoculated weekly): < 62.5 µg/mL | MIC (P. aeruginosa; Pseudomonas aeruginosa, week 1, read-out: Effectiveness as a Slimicide): < 62.5 µg/mL | MIC (P. Piscarium; [4]): 62.5 to 125 µg/mL (≈ 418 to 836 µM) | MIC (P. Piscarium; [5]): < 62.5 µg/mL | MIC (P. Piscarium; [6]): < 62.5 µg/mL | MIC (P. Piscarium; [7]): < 62.5 µg/mL | Minimum Inhibitory Concentration Range (Pseudomonas aeruginosa [2]; week 2, reinoculated weekly): < 125 µg/mL | Minimum Inhibitory Concentration Range (Pseudomonas aeruginosa [2]; week 3, reinoculated weekly): < 125 µg/mL | Minimum Inhibitory Concentration Range (Pseudomonas aeruginosa [2]; week 4, reinoculated weekly): < 125 µg/mL | effectiveness as cutting oil preservative (in words) (Pseudomonas aeruginosa [3]; overall statement on Table III): effective cutting preservative
